Assay [1] relates to Nalm-6 (B-lineage ALL). In words: MTT cytotoxicity assay, Nalm-6. It counts as cell-based. The conditions noted are these: Homo sapiens, 24-36 hours at 37° C., 0.1 to 250 μM. As to the method: (§1) Cytotoxicity of various compounds against tumor cells was performed using the MTT (3-[4,5-[…]]-2,5-diphenyl tetrazolium bromide) assay (Boehringer Mannheim Corp., Indianapolis, Ind.). Unless otherwise specified, all cell lines were obtained from the American Type Culture Collection (ATCC). Briefly, exponentially growing cells were seeded into a 96-well plate at a density of 2.5×10^4 cells/well and incubated for 36 hours at 37° C. prior to drug exposure. On the day of treatment, culture medium was carefully aspirated from the wells and replaced with fresh medium containing the indicated compound at concentrations ranging from 0.1 to 250 μM. Triplicate wells were used for each treatment.
(§2) Human leukemic cell lines (NALM-6, MOLT-3) glioblastoma cells (U373) and human breast tumor cell lines (BT20 and MDA-MB-231) were obtained from the American Type Culture Collection and maintained as a continuous cell line in Dulbecco's modified Eagles's medium supplemented with 10% fetal bovine serum and antibiotics.
(§3) The cells were incubated with the various compounds for 24-36 hours at 37° C. in a humidified 5% CO2 atmosphere. To each well, 10 μl of MTT (0.5 mg/ml final concentration) was added and the plates were incubated at 37° C. for 4 hours to allow MTT to form formazan crystals by reacting with metabolically active cells. The formazan crystals were solubilized overnight at 37° C. in a solution containing 10% SDS in 0.01 M HCl. The absorbence of each well was measured in a microplate reader (Labsystems) at 540 nm and a reference wavelength of […]. To translate the OD540 values into the number of live cells in each well, the OD540 values were compared to those on standard OD540 --versus--cell number curves generated for each cell line. The percent survival was calculated using the formula: [formula]
(§4) The IC50 values were calculated by non-linear regression analysis and are shown below in Tables 1-6.
In general terms: Formazan colour is commonly taken as a measure of viable cells.

Assay [2] concerns Molt-3 (T-lineage ALL). In words: MTT cytotoxicity assay, Molt-3. It counts as cell-based, human. The following applies: Homo sapiens, MOLT-3, MTT, 24-36 hours at 37° C., 0.1 to 250 μM. As for the experimental part:
as §1, §2, §3, §4

Assay [3] deals with BT-20 (breast cancer). In words: MTT cytotoxicity assay, BT-20. The conditions noted are these: Homo sapiens, 24-36 hours at 37° C., 0.1 to 250 μM. It counts as cell-based. As for the experimental part:
as §1, §2, §3, §4

In assay [4] the test system is PC-3 (prostate cancer). The assay is described as follows: MTT cytotoxicity assay, PC-3. It counts as cell-based. The conditions noted are these: 24-36 hours at 37° C., 0.1 to 250 μM. As for the experimental part:
as §1, §3, §4

Assay [5] relates to U-373 (glioblastoma). In words: MTT cytotoxicity assay, U-373. It counts as cell-based. The conditions noted are these: Homo sapiens, U373 MG, 24-36 hours at 37° C., 0.1 to 250 μM. As to the method: as §1, §2, §3, §4

Residues, ends and D or L forms follow the SMILES beside them. *: point of attachment. Farnesyl = CC(C)=CCC/C(C)=C/CC/C(C)=C/C*; Boc = CC(C)(C)OC(=O)*; CHN2 = [N-]=[N+]=C*

The IC50 is the concentration that inhibits the measured activity by half. Higher therefore signals weaker potency.

For `CCCCCCCCCCCCSC[C@H](NC(C)=O)C(=O)CSc1c(F)c(F)c(F)c(F)c1F` [HI-399], the IC50 in assay [1] is 91.2 µM; in assay [2] it was 40.8 µM; in assay [3], above 100 µM; in assay [4] it was 91.6 µM; in assay [5], above 100 µM.

In the case of `CC(C)=CCC/C(C)=C/CC/C(C)=C/CSCCC(=O)CCl` [HI-125, S-trans-trans-Farnesyl-2-mercaptoethyl chloromethyl ketone], the IC50 in assay [1] was 40.7 µM; in assay [2], 35.5 µM; in assay [3] it was above 100 µM; in assay [4] it was above 100 µM; in assay [5], above 100 µM.

As for `CC(=O)N[C@@H](CSC(c1ccccc1)(c1ccccc1)c1ccccc1)C(=O)CCl` [HI-350, N-Ac-S-trityl-cysteine chloromethyl ketone], the IC50 in assay [1] came out at 10 µM; in assay [2] it was 26.4 µM; in assay [3] it was 88.8 µM; in assay [4], 52.2 µM; in assay [5] it was 87.1 µM.

`CC(C)=CCC/C(C)=C/CC/C(C)=C/CSC[C@H](NC(=O)CNC(=O)OC(C)(C)C)C(=O)C=[N+]=[N-]` [HI-401, N-Boc-Gly-S-trans-trans-farnesyl-Cys diazomethyl ketone] (Boc-Gly-Cys(Farnesyl)-CHN2): the IC50 in assay [1] was 51.3 µM; in assay [2], 84.5 µM; in assay [3], 95.1 µM; in assay [4] it was 90.6 µM; in assay [5], above 100 µM.

Turning to `CCCCCCCCCCCCSC[C@H](NC(=O)C(F)(F)F)C(=O)CCl` [HI-490, N-Trifluoroacetyl-S-dodecyl-cysteine chloromethyl ketone], the IC50 was 32.6 µM in assay [1]; 41.3 µM in assay [2]; above 100 µM in assay [3]; above 100 µM in assay [4]; above 100 µM in assay [5].

Consider `CC(=O)N[C@@H](CSC(C)(C)C)C(=O)CCl` [HI-349, N-Ac-S-t-butyl-cysteine chloromethyl ketone], for which the IC50 is 71 µM in assay [1]; 71.9 µM in assay [2]; above 100 µM in assay [3]; above 100 µM in assay [4]; above 100 µM in assay [5].

On to `CC(C)=CCC/C(C)=C/CC/C(C)=C/CSCC(=O)C=[N+]=[N-]` [HI-84, S-trans-trans-Farnesyl-mercaptomethyl diazomethyl ketone], for which the IC50 in assay [1] was above 100 µM; in assay [2], 60.3 µM; in assay [3] it was above 100 µM; in assay [4], above 100 µM; in assay [5] it was above 100 µM.

In the case of `CCCCCCCCCCCCSC[C@H](NC(=O)OCC)C(=O)CCl` [HI-319], the IC50 is 77.6 µM in assay [1]; 84.2 µM in assay [2]; above 100 µM in assay [3]; above 100 µM in assay [4]; above 100 µM in assay [5].

With `CCCCCCCCCCCCSC[C@H](NC(=O)OCc1ccccc1)C(=O)CCl` [HI-320, N-Benzyloxycarbonyl-S-dodecylcysteine chloromethyl ketone], the IC50 in assay [1] is 13.5 µM; in assay [2], above 100 µM; in assay [3] it was above 100 µM; in assay [4], above 100 µM; in assay [5] it was above 100 µM.

Take `CCCCCCCCCCCCSC[C@H](NC(=O)OCC1c2ccccc2-c2ccccc21)C(=O)CCl` [HI-398, N-9-Fluorenylmethyloxycarbonyl-S-dodecyl-cysteine chloromethyl ketone]: the IC50 is 25.7 µM in assay [1]; 32.3 µM in assay [2]; above 100 µM in assay [3]; above 100 µM in assay [4]; above 100 µM in assay [5].

Turning to `CC(C)=CCC/C(C)=C/CC/C(C)=C/CSC[C@H](NC(=O)OC(C)(C)C)C(=O)CCl` [HI-124, N-Boc-S-farnesyl-Cys chloromethyl ketone], the IC50 in assay [1] was 10.7 µM; in assay [2], 7.7 µM; in assay [3], above 100 µM; in assay [4], above 100 µM; in assay [5], above 100 µM.

On to `CC(=O)N[C@@H](CSC/C=C(\C)CC/C=C(\C)CCC=C(C)C)C(=O)CCl` [HI-368, N-Ac-S-trans-trans-farnesyl-Cys chloromethyl ketone], for which the IC50 in assay [1] amounted to 3 µM; in assay [2] it was 1.4 µM; in assay [3], 55.8 µM; in assay [4] it was 26.8 µM; in assay [5] it was 61.3 µM.

As to `CC(=O)N[C@@H](CSC/C=C(\C)CC/C=C(\C)CCC=C(C)C)C(=O)C=[N+]=[N-]` [HI-367, N-Ac-S-trans-trans-farnesyl-Cys diazomethyl ketone], the IC50 in assay [1] was 30.3 µM; in assay [2], 32.2 µM; in assay [3], above 100 µM; in assay [4], above 100 µM; in assay [5], above 100 µM.

The values are drawn from US6251882A, “Alkyl ketones as potent anti-cancer agents” (Parker Hughes Institute, priority 1999, dated 2001).
